Data as given in ChEMBL document CHEMBL4196094, “Structure-based design of bacterial transglycosylase inhibitors incorporating biphenyl, amine linker and 2-alkoxy-3-phosphorylpropanoate moieties” (Eur J Med Chem, 2018).
≈ marks a conversion by molar mass, not a printed value.

Columns and labels:
[1] = target: T1, Penicillin-binding protein 1B (Acinetobacter baumannii) (UniProt G1C7A4); assay: Inhibition of Acinetobacter baumannii PBP1b transglycosylase activity at 500 uM using NBD-lipid 2 as substrate after 2 hrs by muramidase enzyme coupled HPLC analysis relative to control
T1 sequence (whole entry): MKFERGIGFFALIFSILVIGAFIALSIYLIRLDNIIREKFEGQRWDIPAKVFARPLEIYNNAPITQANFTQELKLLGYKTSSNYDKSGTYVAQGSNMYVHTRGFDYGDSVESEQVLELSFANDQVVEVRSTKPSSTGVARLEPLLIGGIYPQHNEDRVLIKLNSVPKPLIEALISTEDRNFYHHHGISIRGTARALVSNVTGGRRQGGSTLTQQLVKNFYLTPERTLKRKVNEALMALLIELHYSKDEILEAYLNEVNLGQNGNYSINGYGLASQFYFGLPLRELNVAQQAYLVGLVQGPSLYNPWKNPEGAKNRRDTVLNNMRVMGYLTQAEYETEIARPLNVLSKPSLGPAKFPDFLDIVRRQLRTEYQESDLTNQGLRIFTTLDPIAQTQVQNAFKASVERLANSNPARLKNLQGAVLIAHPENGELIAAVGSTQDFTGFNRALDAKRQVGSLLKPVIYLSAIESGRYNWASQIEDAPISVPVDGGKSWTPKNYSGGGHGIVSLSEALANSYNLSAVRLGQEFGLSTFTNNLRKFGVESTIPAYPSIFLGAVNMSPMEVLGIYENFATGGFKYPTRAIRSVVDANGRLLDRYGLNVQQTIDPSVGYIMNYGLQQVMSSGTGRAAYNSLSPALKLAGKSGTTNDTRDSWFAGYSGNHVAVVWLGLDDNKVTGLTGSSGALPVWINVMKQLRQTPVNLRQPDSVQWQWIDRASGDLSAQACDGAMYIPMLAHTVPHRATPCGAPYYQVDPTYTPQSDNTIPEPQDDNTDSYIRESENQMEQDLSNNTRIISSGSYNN

[2] = target: T2, Penicillin-binding protein 1B (Acinetobacter baumannii, UniProt G1C7A4); assay: Inhibition of Acinetobacter baumannii PBP1b transglycosylase activity using NBD-lipid 2 as substrate after 2 hrs by muramidase enzyme coupled HPLC analysis
T2 sequence (G1C7A4 whole entry): T1 sequence (whole entry)

[3] = target: T1, Penicillin-binding protein 1B (Acinetobacter baumannii); assay: Inhibition of Acinetobacter baumannii PBP1b transglycosylase activity at 200 uM using NBD-lipid 2 as substrate after 2 hrs by muramidase enzyme coupled HPLC analysis relative to control
[4] = system: Staphylococcus aureus; assay: Antibacterial activity against Staphylococcus aureus after 16 to 18 hrs; assay type: functional
[5] = target: T1, Penicillin-binding protein 1B (Acinetobacter baumannii); assay: Inhibition of Acinetobacter baumannii PBP1b transglycosylase activity at 1 uM using NBD-lipid 2 as substrate after 2 hrs by muramidase enzyme coupled HPLC analysis relative to control

Row | SMILES | inhibition [1] [%] | MIC95 [4] [µM] | other results
1 | CCCCCCCCCCCCn1cc(CO[C@H](CP(=O)(O)OCCCNC(=O)c2ccc(-c3ccccc3)cc2)C(=O)OCC)nn1 | < 5 |  | 
2 | CCCCCCCCCCCCn1cc(CO[C@H](CP(=O)(O)OCCCNCc2ccc(-c3ccccc3)cc2)C(=O)O)nn1 | 13 |  | 
3 | CCCCCCCCCCCCn1cc(CO[C@H](CP(=O)(O)OCCCNCc2ccc(-c3ccccc3)cc2)C(=O)OCC)nn1 | 90 | 6.3 (≈ 4.23 µg/mL) | IC50 [2]: 232 µM; inhibition [3]: 34%
4 | CCCCCCCCCCCCn1cc(CO[C@H](CP(=O)(O)OCCCN(Cc2ccc(-c3ccccc3)cc2)C(=O)OC(C)(C)C)C(=O)OCC)nn1 | 33 |  | 
5 | CCCCCCCCCCCCn1cc(CO[C@H](CP(=O)(O)OCCNCc2ccc(-c3ccccc3)cc2)C(=O)OCC)nn1 |  | 6.3 (≈ 4.14 µg/mL) | IC50 [2]: 157 µM; inhibition [3]: 99%
6 | CCCCCCCCCCCCn1cc(CO[C@H](CP(=O)(O)OCCCNCc2ccc3ccccc3c2)C(=O)OCC)nn1 | 55 | 6.3 (≈ 4.06 µg/mL) | 
7 | CCCCCCCCCCCCn1cc(CO[C@H](CP(=O)(O)OCCCN(Cc2ccc(-c3ccccc3)cc2)C(=O)OCC(Cl)(Cl)Cl)C(=O)O)nn1 | < 5 |  | 
8 | CCCCCCCCCCCCn1cc(CO[C@H](CP(=O)(O)OCCCN(Cc2ccc(-c3ccccc3)cc2)C(=O)OCC(Cl)(Cl)Cl)C(=O)OCC)nn1 | 70 |  | 
9 | CCCCCCCCCCCCn1cc(CO[C@H](CP(=O)(O)OCCCN(C)Cc2ccc(-c3ccccc3)cc2)C(=O)OCC)nn1 |  | 6.3 (≈ 4.31 µg/mL) | IC50 [2]: 153 µM; inhibition [3]: 99%
10 | CCCCCCCCCCCCn1cc(CO[C@H](CP(=O)(O)OCCCNC(=O)c2ccc(-c3ccccc3)cc2)C(=O)O)nn1 | < 5 |  | 
11 | C=C(C/C=C(\C)CCC=C(C)C)CCC(C)(C)/C=C/CC/C(C)=C\CO[C@H](COP(=O)(O)O[C@H]1O[C@H](C(N)=O)[C@@](C)(O)[C@H](OC(N)=O)[C@H]1O[C@@H]1O[C@H](CO[C@@H]2O[C@H](CO)[C@@H](O)[C@H](O)[C@H]2O)[C@@H](O[C@@H]2O[C@H](C)[C@@H](O[C@@H]3O[C@H](C(=O)NC4=C(O)CCC4=O)[C@H](O)[C@H](O)[C@H]3O)[C@H](O)[C@H]2NC(C)=O)[C@H](O)[C@H]1NC(C)=O)C(=O)O |  |  | inhibition [5]: 100%
12 | CC1(C)S[C@@H]2[C@H](NC(=O)[C@H](N)c3ccccc3)C(=O)N2[C@H]1C(=O)O [AMPICILLIN] |  | 1.4 (≈ 0.489 µg/mL) | 
13 | CCCCCCCCCCCCn1cc(CO[C@H](CP(=O)(O)OCCCNCc2ccc3ccccc3c2)C(=O)O)nn1 | 48 |  | 
14 | CCCCCCCCCCCCn1cc(CO[C@H](CP(=O)(O)OCCCN(Cc2ccc(-c3ccccc3)cc2)Cc2ccc(-c3ccccc3)cc2)C(=O)OCC)nn1 |  | > 400 | IC50 [2]: 87 µM; inhibition [3]: 99%
